Literature values in US20260373135A1, “Methods of Treatment with Tradipitant” (Vanda Pharmaceuticals Inc., priority 2022, published 2026).

Key:
[1] = molecular target: T1, CYP3A4 (Homo sapiens, UniProt P08684); conditions: breast cancer patients; n=16 *22, n=116 wt; cited from earlier work
[2] = molecular target: T1, CYP3A4; conditions: renal transplant patients; cited from earlier work
[3] = molecular target: T1, CYP3A4; conditions: human liver microsomes in vitro; cited from earlier work

T1 sequence (P08684 whole entry): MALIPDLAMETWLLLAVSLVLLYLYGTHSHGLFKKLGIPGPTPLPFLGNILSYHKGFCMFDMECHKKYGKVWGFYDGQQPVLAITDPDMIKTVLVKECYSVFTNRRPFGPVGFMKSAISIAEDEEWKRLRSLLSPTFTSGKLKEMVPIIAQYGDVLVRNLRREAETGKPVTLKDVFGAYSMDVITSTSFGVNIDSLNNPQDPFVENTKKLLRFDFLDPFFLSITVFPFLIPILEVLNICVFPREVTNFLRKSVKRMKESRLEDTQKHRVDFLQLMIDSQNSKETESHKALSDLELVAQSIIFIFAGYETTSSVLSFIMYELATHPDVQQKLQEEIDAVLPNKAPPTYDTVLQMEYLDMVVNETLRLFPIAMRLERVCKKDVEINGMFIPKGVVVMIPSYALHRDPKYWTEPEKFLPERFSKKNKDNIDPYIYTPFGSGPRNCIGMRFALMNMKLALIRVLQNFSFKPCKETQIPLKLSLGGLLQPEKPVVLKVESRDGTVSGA

Question: For `CC/C(=C(\c1ccc(O)cc1)c1ccc(OCCNC)cc1)c1ccccc1` [Endoxifen], which “blood concentrations in CYP3A4*22 carriers vs *1/*1” value [1] is on record?
Answer: increased

Question: With `CO[C@H]1C[C@@H]2CC[C@@H](C)[C@@](O)(O2)C(=O)C(=O)N2CCCC[C@H]2C(=O)O[C@H]([C@H](C)C[C@@H]2CC[C@@H](OCCO)[C@H](OC)C2)CC(=O)[C@H](C)/C=C(\C)[C@@H](O)[C@@H](OC)C(=O)[C@H](C)C[C@H](C)/C=C/C=C/C=C/1C` [everolimus] as the compound, how does the “clearance in CYP3A4*22 carriers” value [2] read?
Answer: lower clearance

Question: For `CO[C@H]1C[C@@H]2CC[C@@H](C)[C@@](O)(O2)C(=O)C(=O)N2CCCC[C@H]2C(=O)O[C@H]([C@H](C)C[C@@H]2CC[C@@H](O)[C@H](OC)C2)CC(=O)[C@H](C)/C=C(\C)[C@@H](O)[C@@H](OC)C(=O)[C@H](C)C[C@H](C)/C=C/C=C/C=C/1C` [sirolimus], which “metabolic rate with CYP3A4*22” value [3] is on record?
Answer: lower

Question: With `C=CC[C@@H]1/C=C(\C)C[C@H](C)C[C@H](OC)[C@H]2O[C@@](O)(C(=O)C(=O)N3CCCC[C@H]3C(=O)O[C@H](/C(C)=C/[C@@H]3CC[C@@H](O)[C@H](OC)C3)[C@H](C)[C@@H](O)CC1=O)[C@H](C)C[C@@H]2OC` [tacrolimus] as the compound, how does the “clearance in CYP3A4*22 carriers” value [2] read?
Answer: reduced
